Molecular target: T1, HPK1 (Homo sapiens, UniProt Q92918)
T1 construct: A HiBiT tag was introduced by CRISPR on the N terminus of HPK1 in Jurkat cells; host or cells: Jurkat cells (ATCC TIB-152), monoclonal line with CRISPR knock-in of HiBiT at the endogenous HPK1 locus
Assay: HPK1 Cellular HiBit Degradation Assay
Type: cell-based
Settings: HiBiT HPK1 Jurkat cells, 24 hrs; for DC50: concentration at which 50% of HPK1 was remaining, read-out: DC50 Category; for Dmax: Jurkat, maximum degradation vs DMSO vehicle control, read-out: Dmax Category
Method: HPK1 Cellular HiBit Degradation Assay
A HiBiT tag was introduced by CRISPR on the N terminus of HPK1 in Jurkat cells (ATCC® TIB-152) to allow quantitation of HPK1 protein levels in a monoclonal human cell line. Cells were plated at 1×10^6 cells/mL, 30 uL/well (3×10^4 cells/well) in complete RPMI 1640 (10% heat inactivated FBS, 1% L-glutamine) in 384-well assay plates (Corning, cat. no. 3570). HPK1 chimeric targeting molecules (CTMs) were added in an 11 point dilution series (11-point, 3.16-fold) with a final assay concentration range of 10 uM to 0.1 nM. The parental Jurkat cell line, with no HiBiT insertion, was included in the assay as a background control. Cell treated with a DMSO vehicle control was used to determine the maximum signal defining 100% HPK1 in the cell. Cells were incubated for 24 hrs at 37° C./5% CO2. Following incubation, 30 uL of complete Nano-Glo HiBiT Lytic Detection Reagent (Promega cat. no. N3040) was added. Cells were incubated for 10 min at room temperature and luminescence was read on an EnVision plate reader (Perkin Elmer, 0.1 sec per well). Viability was assessed in the same plate using Cell Titer Fluor (Promega) and read on an EnVision plate reader to ensure results were not the effect of cytotoxicity. Percent HPK1 remaining per sample was calculated as follows:
[formula] % HPK1 remaining values were plotted as a function of compound concentration and curves were fit using the Prism (GraphPad) equation “log(inhibitor) vs response−Variable slope (four parameters)”. Dmax values were calculated by identifying the lowest % remaining and subtracting from 100. DC50 values were determined by extrapolating from the curve the concentration at which 50% of HPK1 was remaining based on the DMSO control.
HiBiT HPK1 Jurkat cell lines were used to evaluate the total protein levels of HPK1 in a robust human cellular high throughput format. The level of HPK1 remaining following treatment with HPK1 CTMs is reported as Dmax (maximum degradation) achieved at 24 hours when compared to vehicle treated controls. […] These decreases were not a result of cytotoxicity measured by a viability assessment.

T1 sequence (Q92918 whole entry): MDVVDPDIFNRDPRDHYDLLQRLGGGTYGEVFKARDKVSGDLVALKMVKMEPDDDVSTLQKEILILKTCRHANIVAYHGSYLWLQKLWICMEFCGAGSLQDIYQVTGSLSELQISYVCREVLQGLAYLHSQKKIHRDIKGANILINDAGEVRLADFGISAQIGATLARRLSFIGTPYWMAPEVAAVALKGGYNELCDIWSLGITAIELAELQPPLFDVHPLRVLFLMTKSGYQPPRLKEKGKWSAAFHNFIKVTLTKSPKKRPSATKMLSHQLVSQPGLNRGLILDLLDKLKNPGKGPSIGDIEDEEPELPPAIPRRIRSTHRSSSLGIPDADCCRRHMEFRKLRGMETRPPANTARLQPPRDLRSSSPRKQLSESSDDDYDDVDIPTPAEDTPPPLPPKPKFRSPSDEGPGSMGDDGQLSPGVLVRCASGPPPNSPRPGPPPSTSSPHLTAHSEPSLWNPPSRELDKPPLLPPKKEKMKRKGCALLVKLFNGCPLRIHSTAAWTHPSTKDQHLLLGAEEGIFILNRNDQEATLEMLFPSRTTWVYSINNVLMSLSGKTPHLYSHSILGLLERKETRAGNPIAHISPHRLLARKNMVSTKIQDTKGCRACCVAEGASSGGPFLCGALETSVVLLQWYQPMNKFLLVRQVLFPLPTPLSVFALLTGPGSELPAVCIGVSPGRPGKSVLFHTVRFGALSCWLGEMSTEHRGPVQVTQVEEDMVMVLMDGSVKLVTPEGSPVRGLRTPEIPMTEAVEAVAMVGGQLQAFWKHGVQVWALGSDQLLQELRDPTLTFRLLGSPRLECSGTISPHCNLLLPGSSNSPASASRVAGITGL

SMILES	DC50 [nM]	Dmax [%]
CC(C)n1cnc2cc(-c3ccc4c(c3)N([C@H]3C[C@@H](N5CCCCC5)C3)C(=O)C43CCN(C(=O)[C@@H]4CCN(C(=O)[C@H]5CC[C@H](Nc6cc(C7CCC(=O)NC7=O)ccn6)CC5)C4)CC3)nc(Nc3ccccc3F)c21 (mixture of isomers) [Example 1, (3RS)-3-(2-{[(1R,4R)-4-[(3R)-3-[(6-{4-[(2-fluorophenyl)amino]-3-(propan-2-yl)-3H-imidazo[4,5-c]pyridin-6-yl}-2-oxo-1-[(1S,3S)-3-(piperidin-1-yl)cyclobutyl]-1,2-dihydrospiro[indole-3,4′-piperidin]-1′-yl)carbonyl]pyrrolidine-1-carbonyl]cyclohexyl]amino}pyridin-4-yl)piperidine-2,6-dione]	100 to 500	70 to 85
CC(C)n1cnc2cc(-c3ccc4c(c3)N([C@H]3C[C@@H](N5CCCCC5)C3)C(=O)C43CCN(C(=O)[C@@H]4CCN(C(=O)[C@H]5CC[C@H](Nc6ccc(C7CCC(=O)NC7=O)cc6)CC5)C4)CC3)nc(NC3CC3)c21 (mixture of isomers) [Example 2, (3RS)-3-(4-{[(1R,4R)-4-[(3R)-3-({6-[4-(cyclopropylamino)-3-(propan-2-yl)-3H-imidazo[4,5-c]pyridin-6-yl]-2-oxo-1-[(1S,3S)-3-(piperidin-1-yl)cyclobutyl]-1,2-dihydrospiro[indole-3,4′-piperidin]-1′-yl}carbonyl)pyrrolidine-1-carbonyl]cyclohexyl]amino}phenyl)piperidine-2,6-dione]	< 100	70 to 85
CC(C)n1cnc2cc(-c3ccc4c(c3)N([C@H]3C[C@@H](N5CCCCC5)C3)C(=O)C43CCN(C(=O)[C@@H]4CCN(C(=O)[C@H]5CC[C@H](Nc6ccc(C7CCC(=O)NC7=O)cc6)CC5)C4)CC3)nc(Nc3ccccc3F)c21 (mixture of isomers) [Example 3, (3RS)-3-(4-{[(1R,4R)-4-[(3R)-3-[(6-{4-[(2-fluorophenyl)amino]-3-(propan-2-yl)-3H-imidazo[4,5-c]pyridin-6-yl}-2-oxo-1-[(1S,3S)-3-(piperidin-1-yl)cyclobutyl]-1,2-dihydrospiro[indole-3,4′-piperidin]-1′-yl)carbonyl]pyrrolidine-1-carbonyl]cyclohexyl]amino}phenyl)piperidine-2,6-dione]	< 100	> 85
CC(C)n1cnc2cc(-c3ccc4c(c3)N([C@H]3C[C@@H](N5CCCCC5)C3)C(=O)C43CCN(C(=O)[C@@H]4CCN(C(=O)[C@H]5CC[C@H](Nc6ccc(C7CCC(=O)NC7=O)cn6)CC5)C4)CC3)nc(NC3CC3)c21 (mixture of isomers) [Example 5, (3RS)-3-(6-{[(1R,4R)-4-[(3R)-3-({6-[4-(cyclopropylamino)-3-(propan-2-yl)-3H-imidazo[4,5-c]pyridin-6-yl]-2-oxo-1-[(1S,3S)-3-(piperidin-1-yl)cyclobutyl]-1,2-dihydrospiro[indole-3,4′-piperidin]-1′-yl}carbonyl)pyrrolidine-1-carbonyl]cyclohexyl]amino}pyridin-3-yl)piperidine-2,6-dione]	100 to 500	70 to 85
CC(C)n1cnc2cc(-c3ccc4c(c3)N([C@H]3C[C@@H](N5CCCCC5)C3)C(=O)C43CCN(C(=O)[C@@H]4CCN(C(=O)[C@H]5CC[C@H](Nc6ccc(C7CCC(=O)NC7=O)cn6)CC5)C4)CC3)nc(Nc3ccccc3F)c21 (mixture of isomers) [Example 6, (3RS)-3-(6-{1[(1R,4R)-4-[(3R)-3-[(6-{4-[(2-fluorophenyl)amino]-3-(propan-2-yl)-3H-imidazo[4,5-c]pyridin-6-yl}-2-oxo-1-[(1S,3S)-3-(piperidin-1-yl)cyclobutyl]-1,2-dihydrospiro[indole-3,4′-piperidin]-1′-yl)carbonyl]pyrrolidine-1-carbonyl]cyclohexyl]amino}pyridin-3-yl)piperidine-2,6-dione]	100 to 500	70 to 85
CC(C)n1cnc2cc(-c3ccc4c(c3)N([C@H]3C[C@@H](N5CCCCC5)C3)C(=O)C43CCN(C(=O)[C@@H]4CCN(C(=O)[C@H]5CC[C@H](Nc6ccc(C(=O)NC7CCC(=O)NC7=O)nc6)CC5)C4)CC3)nc(Nc3ccccc3F)c21 (mixture of isomers) [Example 7, N-[(3RS)-2,6-dioxopiperidin-3-yl]-5-{1[(1R,4R)-4-[(3R)-3-[(6-{4-[(2-fluorophenyl)amino]-3-(propan-2-yl)-3H-imidazo[4,5-c]pyridin-6-yl}-2-oxo-1-[(1S,3S)-3-(piperidin-1-yl)cyclobutyl]-1,2-dihydrospiro[indole-3,4′-piperidin]-1′-yl)carbonyl]pyrrolidine-1-carbonyl]cyclohexyl]amino}pyridine-2-carboxamide]	500 to 1000	50 to 70
CC(C)n1cnc2cc(-c3ccc4c(c3)N([C@H]3C[C@@H](N5CCCCC5)C3)C(=O)C43CCN(C(=O)[C@@H]4CCN(C(=O)[C@H]5CC[C@H](Nc6cccc(C7CCC(=O)NC7=O)n6)CC5)C4)CC3)nc(Nc3ccccc3F)c21 (mixture of isomers) [Example 8, (3RS)-3-(6-{1[(1R,4R)-4-[(3R)-3-[(6-{4-[(2-fluorophenyl)amino]-3-(propan-2-yl)-3H-imidazo[4,5-c]pyridin-6-yl}-2-oxo-1-[(1S,3S)-3-(piperidin-1-yl)cyclobutyl]-1,2-dihydrospiro[indole-3,4′-piperidin]-1′-yl)carbonyl]pyrrolidine-1-carbonyl]cyclohexyl]amino}pyridin-2-yl)piperidine-2,6-dione]	500 to 1000	70 to 85
CC(C)n1cnc2cc(-c3ccc4c(c3)N([C@H]3C[C@@H](N5CCCCC5)C3)C(=O)C43CCN(C(=O)[C@@H]4CCN(C(=O)[C@H]5CC[C@H](Nc6cccc7c6C(=O)N(C6CCC(=O)NC6=O)C7=O)CC5)C4)CC3)nc(Nc3ccccc3F)c21 (mixture of isomers) [Example 9, 2-[(3RS)-2,6-dioxopiperidin-3-yl]-4-{[(1R,4R)-4-[(3R)-3-[(6-{4-[(2-fluorophenyl)amino]-3-(propan-2-yl)-3H-imidazo[4,5-c]pyridin-6-yl}-2-oxo-1-[(1S,3S)-3-(piperidin-1-yl)cyclobutyl]-1,2-dihydrospiro[indole-3,4′-piperidin]-1′-yl)carbonyl]pyrrolidine-1-carbonyl]cyclohexyl]amino}-2,3-dihydro-1H-isoindole-1,3-dione]	100 to 500	> 85
CC(C)n1cnc2cc(-c3ccc4c(c3)N([C@H]3C[C@@H](N5CCCCC5)C3)C(=O)C43CCN(C(=O)[C@@H]4CCN(C(=O)[C@H]5CC[C@H](Nc6cccc7c6C(=O)N(C6CCC(=O)NC6=O)C7=O)CC5)C4)CC3)nc(NC3CC3)c21 (mixture of isomers) [Example 10, 2-[(3RS)-2,6-dioxopiperidin-3-yl]-4-{[(1R,4R)-4-[(3R)-3-({6-[4-(cyclopropylamino)-3-(propan-2-yl)-3H-imidazo[4,5-c]pyridin-6-yl]-2-oxo-1-[(1S,3S)-3-(piperidin-1-yl)cyclobutyl]-1,2-dihydrospiro[indole-3,4′-piperidin]-1′-yl}carbonyl)pyrrolidine-1-carbonyl]cyclohexyl]amino}-2,3-dihydro-1H-isoindole-1,3-dione]	< 100	70 to 85
